Calls of active or inactive are those of the source.
How the values were obtained:
[1] = inhibitors of firefly luciferase expression or activity, dose response, H4 neuroglioma cells, luminescence (AID 1990); format: functional, cell-based
BJ [2] = assay: cytotoxicity toward BJ-TERT fibroblasts, dose response, cell-based, RAS-independent, luminescence (AID 1933); format: functional; details: Homo sapiens
cells [3] = format: functional, cell-based
[4] = Luminescence Cell-Based Dose Response HTS to Identify Inhibitors of 5'UTR Stem-Loop Driven Prion Protein mRNA Translation in H4 Neuroglioblastoma Cells. [Related pubchem assays: 1827 (Project Summary), 1813 (Primary HTS)]; format: functional
[5] = inhibitors of SNCA 5'UTR-driven reporter translation, confirmation, H4 neuroglioma cells, luminescence (AID 1988); format: functional, cell-based
BJ [6] = assay: cells; format: functional, cell-based; details: Homo sapiens
cells [7] = format: functional, cell-based; remark: listed apart in the source
BJ [8] = assay: cytotoxicity toward BJ-TERT-LT-ST fibroblasts, dose response, cell-based, RAS-independent, luminescence (AID 1935); format: functional; details: Homo sapiens;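 also: BJ fibroblasts immortalized with TERT plus LT and ST oncogenes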
[9] = cytotoxicity toward DRD oncogenic fibroblasts, dose response, cell-based, non-viral oncogenic, luminescence (AID 1934); format: functional; details: Homo sapiens
Exodeoxyribonuclease V = Exodeoxyribonuclease V (Escherichia coli (strain K12), UniProt P04993+P07648+P08394); assay: E. coli RecBCD inhibitors, dose response, counter-screen for AddAB inhibitor project, absorbance, V66 E. coli, mutant T4 phage (AID 492957); format: functional, cell-based, Escherichia coli str. K-12 substr. MG1655
Exodeoxyribonuclease V, sequence (P04993 whole entry): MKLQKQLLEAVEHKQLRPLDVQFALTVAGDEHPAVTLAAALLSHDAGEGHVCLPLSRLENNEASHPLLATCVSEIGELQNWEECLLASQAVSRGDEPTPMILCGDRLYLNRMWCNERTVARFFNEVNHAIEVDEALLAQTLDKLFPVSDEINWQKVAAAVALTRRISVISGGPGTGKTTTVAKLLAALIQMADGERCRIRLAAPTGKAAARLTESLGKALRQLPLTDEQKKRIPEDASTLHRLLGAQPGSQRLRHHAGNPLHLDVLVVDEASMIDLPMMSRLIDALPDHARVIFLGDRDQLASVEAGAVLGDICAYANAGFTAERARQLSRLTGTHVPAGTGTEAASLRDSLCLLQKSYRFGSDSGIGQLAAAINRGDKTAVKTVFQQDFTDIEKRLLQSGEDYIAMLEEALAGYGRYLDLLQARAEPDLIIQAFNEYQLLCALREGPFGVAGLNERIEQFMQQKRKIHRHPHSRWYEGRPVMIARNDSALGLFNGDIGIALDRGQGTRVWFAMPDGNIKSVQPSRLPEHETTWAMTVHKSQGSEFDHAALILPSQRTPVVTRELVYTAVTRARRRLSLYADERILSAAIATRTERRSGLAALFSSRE
Exodeoxyribonuclease V, sequence (P07648 whole entry): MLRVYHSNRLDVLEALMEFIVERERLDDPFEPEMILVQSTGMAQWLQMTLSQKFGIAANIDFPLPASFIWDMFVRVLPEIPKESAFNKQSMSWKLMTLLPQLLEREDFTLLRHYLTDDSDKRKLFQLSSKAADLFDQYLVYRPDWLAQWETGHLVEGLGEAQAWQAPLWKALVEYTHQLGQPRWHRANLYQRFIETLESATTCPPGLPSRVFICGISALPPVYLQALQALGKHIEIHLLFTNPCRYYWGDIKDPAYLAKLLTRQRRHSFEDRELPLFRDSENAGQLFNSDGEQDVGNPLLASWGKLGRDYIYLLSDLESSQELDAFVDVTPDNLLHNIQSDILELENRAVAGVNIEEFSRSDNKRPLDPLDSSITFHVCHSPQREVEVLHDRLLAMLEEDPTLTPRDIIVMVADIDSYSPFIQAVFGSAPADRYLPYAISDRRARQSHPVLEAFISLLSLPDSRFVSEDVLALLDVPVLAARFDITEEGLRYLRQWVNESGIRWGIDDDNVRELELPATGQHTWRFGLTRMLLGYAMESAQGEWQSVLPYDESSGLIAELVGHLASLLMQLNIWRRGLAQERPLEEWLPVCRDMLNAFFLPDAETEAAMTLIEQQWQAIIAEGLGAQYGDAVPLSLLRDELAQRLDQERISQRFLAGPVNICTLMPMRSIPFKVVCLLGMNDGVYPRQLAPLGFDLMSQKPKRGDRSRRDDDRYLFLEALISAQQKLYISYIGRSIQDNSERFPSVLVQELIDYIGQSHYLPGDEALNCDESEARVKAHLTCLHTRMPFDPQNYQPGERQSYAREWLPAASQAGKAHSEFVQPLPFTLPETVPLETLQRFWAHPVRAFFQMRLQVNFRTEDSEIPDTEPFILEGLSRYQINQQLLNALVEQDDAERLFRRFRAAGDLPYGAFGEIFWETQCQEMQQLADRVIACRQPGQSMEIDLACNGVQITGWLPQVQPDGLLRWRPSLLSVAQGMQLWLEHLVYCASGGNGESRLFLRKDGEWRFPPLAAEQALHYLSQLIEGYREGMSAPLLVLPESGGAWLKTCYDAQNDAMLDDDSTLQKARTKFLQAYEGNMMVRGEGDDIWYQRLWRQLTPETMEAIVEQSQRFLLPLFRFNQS
Exodeoxyribonuclease V, sequence (P08394 whole entry): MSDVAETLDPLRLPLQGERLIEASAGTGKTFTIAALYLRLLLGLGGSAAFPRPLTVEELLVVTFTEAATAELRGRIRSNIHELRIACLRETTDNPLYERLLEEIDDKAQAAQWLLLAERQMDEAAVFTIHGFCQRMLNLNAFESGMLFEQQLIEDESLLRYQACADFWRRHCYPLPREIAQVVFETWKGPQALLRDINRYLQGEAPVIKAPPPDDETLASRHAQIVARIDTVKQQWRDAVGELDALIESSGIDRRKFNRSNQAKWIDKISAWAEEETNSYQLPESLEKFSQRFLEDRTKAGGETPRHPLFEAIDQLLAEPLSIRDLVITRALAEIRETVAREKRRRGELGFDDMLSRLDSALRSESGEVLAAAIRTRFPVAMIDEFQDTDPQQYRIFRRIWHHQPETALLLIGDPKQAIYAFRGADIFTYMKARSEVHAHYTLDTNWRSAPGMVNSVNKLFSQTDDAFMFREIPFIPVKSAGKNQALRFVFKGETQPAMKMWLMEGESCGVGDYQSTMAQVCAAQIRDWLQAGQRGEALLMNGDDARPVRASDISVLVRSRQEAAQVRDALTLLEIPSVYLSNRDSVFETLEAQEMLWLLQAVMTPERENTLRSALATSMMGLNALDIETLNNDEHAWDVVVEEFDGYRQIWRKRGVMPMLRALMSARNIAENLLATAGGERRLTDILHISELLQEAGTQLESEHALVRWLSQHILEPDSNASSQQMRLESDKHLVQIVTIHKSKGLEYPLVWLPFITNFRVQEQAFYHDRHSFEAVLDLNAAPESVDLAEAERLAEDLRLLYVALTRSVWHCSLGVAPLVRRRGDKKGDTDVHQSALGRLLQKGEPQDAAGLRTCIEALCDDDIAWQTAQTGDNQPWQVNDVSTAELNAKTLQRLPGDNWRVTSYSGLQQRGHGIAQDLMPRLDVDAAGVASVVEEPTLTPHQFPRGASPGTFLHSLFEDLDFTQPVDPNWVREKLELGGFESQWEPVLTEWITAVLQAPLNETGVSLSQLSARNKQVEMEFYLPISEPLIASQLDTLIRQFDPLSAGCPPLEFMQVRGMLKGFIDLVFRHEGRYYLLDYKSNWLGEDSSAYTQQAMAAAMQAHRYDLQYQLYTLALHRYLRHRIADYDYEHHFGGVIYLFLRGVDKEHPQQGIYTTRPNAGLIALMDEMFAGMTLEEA

[10] = THP-1 cell cytotoxicity, dose response, cytotoxicity control for non-replicating M. tuberculosis project (AID 489025); format: functional
[11] = molecular target: Intestinal-type alkaline phosphatase (Homo sapiens, UniProt P09923); assay: Dose Response confirmation of uHTS hits from a small molecule inhibitors of human intestinal alkaline phosphatase via a luminescent assay. [Related pubchem assays (depositor defined):AID2544, AID2574]; format: functional
Intestinal-type alkaline phosphatase, sequence (P09923 whole entry): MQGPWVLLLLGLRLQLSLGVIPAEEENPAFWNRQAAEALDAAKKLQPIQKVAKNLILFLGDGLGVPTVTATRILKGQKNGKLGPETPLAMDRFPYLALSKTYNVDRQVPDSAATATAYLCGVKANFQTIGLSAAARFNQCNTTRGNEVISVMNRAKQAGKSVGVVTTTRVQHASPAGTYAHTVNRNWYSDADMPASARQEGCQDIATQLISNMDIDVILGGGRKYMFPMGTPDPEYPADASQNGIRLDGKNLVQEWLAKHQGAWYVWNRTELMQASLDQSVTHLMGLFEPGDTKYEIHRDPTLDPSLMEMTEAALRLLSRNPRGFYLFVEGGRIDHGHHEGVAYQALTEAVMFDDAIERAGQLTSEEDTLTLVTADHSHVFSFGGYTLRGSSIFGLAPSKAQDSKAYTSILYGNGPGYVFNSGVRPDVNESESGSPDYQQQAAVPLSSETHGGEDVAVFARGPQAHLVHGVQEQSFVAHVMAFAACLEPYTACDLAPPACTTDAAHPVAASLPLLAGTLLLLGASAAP

Nonstructural protein 1 = Nonstructural protein 1 (Influenza A virus, UniProt Q194T2); format: functional, Influenza A virus (A/California/07/2009(H1N1))
Nonstructural protein 1, sequence (Q194T2 whole entry): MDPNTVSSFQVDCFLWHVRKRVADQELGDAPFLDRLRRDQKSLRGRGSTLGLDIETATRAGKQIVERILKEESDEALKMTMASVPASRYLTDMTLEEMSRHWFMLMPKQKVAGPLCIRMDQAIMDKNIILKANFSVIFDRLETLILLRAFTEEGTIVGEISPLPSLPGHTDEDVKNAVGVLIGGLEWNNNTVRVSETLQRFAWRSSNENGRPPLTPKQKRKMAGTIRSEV

[12] = Counterscreen for AddAB inhibitors: absorbance-based bacterial cell-based high throughput dose response assay for inhibitors of bacterial viability. [Related pubchem assays (depositor defined):AID435030, AID449728, AID449731, AID488942, AID488955, AID488956]; format: functional
cells [13] = format: functional
HEK293 = assay: inhibitors of LMP1-driven NF-kB reporter, dose response, cell-based, HEK293, luciferase, cherry-pick (AID 588343); format: functional; details: Homo sapiens
[14] = molecular target: Heat shock protein HSP 90-alpha (Homo sapiens, UniProt P07900); format: functional, organism-based
BJ [15] = assay: cytotoxicity toward Ras-transformed BJeLR fibroblasts, dose response, cell-based, alamar blue fluorescence, cherrypicked samples (AID 2631); format: functional; details: Homo sapiens;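 also: confirmatory dose-response assay in RAS-dependent BJ fibroblasts engineered with TERT, LT and ST, with cytotoxicity read by fluorescence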
INS1 [16] = assay: beta cell apoptosis inhibitors, cytokine rescue, dose response, luminescence, retest (AID 449756); format: functional, cell-based; details: Rattus norvegicus;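 also: cell death triggered by IL-1 beta plus TNF-alpha plus IFN-gamma mixture; protective hits raise ATP signal compared with cytokine alone wells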
[17] = Luminescence Cell-Based Dose Retest to Confirm Inhibitors of Cancer Stem Cells. [Related pubchem assays (depositor defined):AID2717, AID2721]; format: functional; details: Homo sapiens
[18] = cytotoxicity in HMLE control line with eGFP shRNA, dose response, counter-screen for HMLE_sh_ECad selective toxicity project, cell-based, HMLE_sh_eGFP, luminescence (AID 463074); format: functional, Homo sapiens;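 also: HMLE human mammary epithelial cells expressing control shRNA against eGFP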
Trypsin = Trypsin (Sus scrofa, UniProt P00761); assay: porcine trypsin inhibitors, dose response, selectivity assay for Rce1 protease inhibitor project, biochemical, quenched peptide fluorescence, cherry-pick (AID 488789)
Trypsin, sequence (P00761 whole entry): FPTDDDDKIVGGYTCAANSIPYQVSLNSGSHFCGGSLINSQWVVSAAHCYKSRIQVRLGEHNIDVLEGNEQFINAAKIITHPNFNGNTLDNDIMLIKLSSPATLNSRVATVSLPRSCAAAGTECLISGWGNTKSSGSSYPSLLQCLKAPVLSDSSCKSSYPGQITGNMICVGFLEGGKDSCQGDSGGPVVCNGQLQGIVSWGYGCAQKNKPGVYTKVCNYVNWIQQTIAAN

CAAX prenyl protease 2 = molecular target: T1, CAAX prenyl protease 2 (Saccharomyces cerevisiae S288c, UniProt Q03530); format: biochemical
T1 sequence (Q03530 whole entry): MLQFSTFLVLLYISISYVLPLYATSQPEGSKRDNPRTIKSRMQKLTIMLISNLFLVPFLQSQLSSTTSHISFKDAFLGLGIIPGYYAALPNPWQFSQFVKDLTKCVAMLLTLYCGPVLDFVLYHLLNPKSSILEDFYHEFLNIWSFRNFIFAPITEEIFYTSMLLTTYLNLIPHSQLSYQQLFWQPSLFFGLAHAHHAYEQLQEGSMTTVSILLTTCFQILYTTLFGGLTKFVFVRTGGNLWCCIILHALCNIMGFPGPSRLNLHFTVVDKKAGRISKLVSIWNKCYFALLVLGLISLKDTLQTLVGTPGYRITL

CAAX prenyl protease 1 = CAAX prenyl protease 1 (Saccharomyces cerevisiae S288c, UniProt P47154); assay: Ste24 protease inhibitors, dose response, biochemical, S. cerevisiae, plate reader, cherry-pick (AID 488815)
CAAX prenyl protease 1, sequence (P47154 whole entry): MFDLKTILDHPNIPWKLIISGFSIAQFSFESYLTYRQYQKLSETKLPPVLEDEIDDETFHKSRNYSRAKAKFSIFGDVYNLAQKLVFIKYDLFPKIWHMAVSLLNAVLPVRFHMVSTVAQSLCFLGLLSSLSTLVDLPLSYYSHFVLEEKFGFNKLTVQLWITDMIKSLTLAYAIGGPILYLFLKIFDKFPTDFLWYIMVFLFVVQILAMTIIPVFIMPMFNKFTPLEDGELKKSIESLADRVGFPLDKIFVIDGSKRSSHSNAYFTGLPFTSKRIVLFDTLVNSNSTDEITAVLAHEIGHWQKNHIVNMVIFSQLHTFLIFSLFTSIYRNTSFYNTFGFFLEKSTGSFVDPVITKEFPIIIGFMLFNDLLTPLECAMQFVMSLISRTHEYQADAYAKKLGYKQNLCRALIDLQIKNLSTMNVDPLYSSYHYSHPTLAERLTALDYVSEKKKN

INS1 [19] = assay: inhibitors of cytokine-induced nitrite release, dose response, cell-based, Griess absorbance, INS-1E, dry powder (AID 488866); format: functional; details: Rattus norvegicus

Cn1nnnc1N=N/C(=N/Nc1ccccc1)c1ccccc1
active: EC50 (BJ [2]) 5.67 µM | EC50 (cells [3]) 8.13 µM | EC50 [5] 8.09 µM | EC50 (BJ [6]) 2.17 µM | CC50 [10] < 0.078 µM | IC50 (Nonstructural protein 1) 26.5 µM | IC50 (cells [13]) 26.6 µM | AC50 (HEK293) 2.69 µM | AC50 [14] 3.55 µM | AC50 (INS1 [16]) 0.408 µM
> 350 µM (not active): EC50 (cells [7])
> 120 µM (not active): EC50 [1] | EC50 [4]
inactive: IC50 (Exodeoxyribonuclease V) > 119 µM | IC50 [11] > 100 µM | IC50 [12] > 119 µM
inconclusive: EC50 (BJ [8]) 4.63 µM | EC50 [9] 7.59 µM | EC50 (BJ [15]) 0.627 µM

Oc1ccccc1C1CC(c2cccs2)=NC(c2cccc(Br)c2)N1 (stereo not given)
active: AC50 [17] 21.1 µM | AC50 [18] 23.9 µM

COc1ccccc1-c1coc2c(CN3CCN(C)CC3)c(O)ccc2c1=O
active: AC50 (Trypsin) 28.3 µM | AC50 (CAAX prenyl protease 2) 97.9 µM | AC50 (CAAX prenyl protease 1) 1.57 µM

COc1ccc(S(=O)(=O)N(C)C[C@@H]2Oc3c(NC(=O)NC4CCCc5ccccc54)cccc3C(=O)N([C@@H](C)CO)C[C@H]2C)cc1 (stereo not given in full)
active: AC50 (INS1 [19]) 124 µM

Source: ChEMBL document CHEMBL1201862, “PubChem BioAssay data set” (2004)
